Measurements reported in article PMC3509583, “Molecular Mechanisms of Pharmaceutical Drug Binding into Calsequestrin” (International Journal of Molecular Sciences, 2012).
Read-outs that look alike come from different tables or passages of the source.

Legend:
[1] = target: T1, human cardiac calsequestrin (hCASQ2) (Homo sapiens, UniProt O14958); design: method as in PMID 20713040; conditions: cited from earlier work; for binding class based on ITC dissociation constants (Kd): hCASQ2, drugs grouped as strong, moderate or poor binders; for Kd: hCASQ2, ITC, previous studies, read-out: experimental dissociation constant (Kd)
T1 sequence (O14958 20-399): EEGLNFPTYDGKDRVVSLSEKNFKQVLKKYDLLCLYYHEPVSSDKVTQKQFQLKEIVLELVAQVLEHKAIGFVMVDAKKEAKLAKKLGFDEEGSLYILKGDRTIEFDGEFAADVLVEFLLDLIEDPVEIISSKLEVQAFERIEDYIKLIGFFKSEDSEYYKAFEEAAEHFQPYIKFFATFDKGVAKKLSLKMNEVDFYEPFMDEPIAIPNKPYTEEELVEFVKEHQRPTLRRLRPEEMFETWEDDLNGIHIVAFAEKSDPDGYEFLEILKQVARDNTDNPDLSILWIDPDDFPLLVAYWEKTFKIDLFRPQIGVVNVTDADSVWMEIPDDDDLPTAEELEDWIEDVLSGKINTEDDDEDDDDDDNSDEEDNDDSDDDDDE

[2] = target: T1, human cardiac calsequestrin (hCASQ2); test: Isothermal titration calorimetry (ITC) of drug binding to hCASQ2, with or without caffeine; conditions: hCASQ2, titration in the absence of caffeine (Supplemental Fig. 2); read-out: Dissociation constant (Kd)
Method: We performed ITC assays to check the predicted competition between the natural compounds (CAF, EGC, and EGCG) and tested synthetic drugs.
ITC experiments were conducted using a previous protocol, with slight modifications. The protein and drug concentrations were kept at 50 μM and 2 mM, respectively, while the CAF concentration was allowed to vary between 0 and 5 mM for different drugs. […] Origin software (Origin Lab Corp, Northampton, MA, USA) was used to fit the data to a one-site binding model via non-linear least squares regression.

SR microsomes = test system: SR microsomes; design: method as in PMID 16141311, PMID 15492117; conditions: concentration- and time-dependent; cited from earlier work

SMILES	binding class based on ITC dissociation constants (Kd) [1]	Kd [1]	Kd [2]	total SR microsomal Ca2+ content (SR microsomes)
CN(C)CCC=C1c2ccccc2CCc2ccccc21 [amitriptyline]	moderate			
CCOC(=O)C1=C(COCCN)NC(C)=C(C(=O)OC)C1c1ccccc1Cl (stereo not drawn) [amlodipine]	strong	20.4 µM		
CN(C)CCCN1c2ccccc2Sc2ccc(Cl)cc21 [chlorpromazine]	poor		102 µM	
COc1cccc2c1C(=O)c1c(O)c3c(c(O)c1C2=O)C[C@@](O)(C(C)=O)C[C@@H]3O[C@H]1C[C@H](N)[C@H](O)[C@H](C)O1 [daunomycin]	strong	20.3 µM		
COc1ccc([C@@H]2Sc3ccccc3N(CCN(C)C)C(=O)[C@@H]2OC(C)=O)cc1 [diltiazem]	moderate		41 µM	
COc1cccc2c1C(=O)c1c(O)c3c(c(O)c1C2=O)C[C@@](O)(C(=O)CO)C[C@@H]3O[C@H]1C[C@H](N)[C@H](O)[C@H](C)O1 [doxorubicin]	strong	14.4 µM		
CN[C@@H](C)[C@H](O)c1ccccc1 [ephedrine]	poor			
CC(C)NCC(O)c1ccc(O)c(O)c1 (stereo not drawn) [isoproterenol]	poor			
COCCc1ccc(OCC(O)CNC(C)C)cc1 (stereo not drawn) [metoprolol]	poor			
Clc1ccc(COC(Cn2ccnc2)c2ccc(Cl)cc2Cl)c(Cl)c1 (stereo not drawn) [miconazole]	poor			
CNCCC=C1c2ccccc2CCc2ccccc21 [nortriptyline]	moderate			
CC(CN1c2ccccc2Sc2ccccc21)N(C)C (stereo not drawn) [promethazine]	moderate			
CCCNCC(O)COc1ccccc1C(=O)CCc1ccccc1 (stereo not drawn) [propafenone]	poor			
CSc1ccc2c(c1)N(CCC1CCCCN1C)c1ccccc1S2 (stereo not drawn) [thioridazine]	strong		22 µM	
CN1CCN(CCCN2c3ccccc3Sc3ccc(C(F)(F)F)cc32)CC1 [trifluoperazine]	strong	18.2 µM	36 µM	significantly reduce
